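Tested at 5 concentrations; 48 h exposure; 96-well plates; endpoints linearly interpolated, else capped at highest concentration. GI50 marks 50% less growth.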 The source made the active and inactive calls. Cut-off read from the data, not from the text of the source: active = GI50 up to about 1.1 µM and inactive = higher.
What was measured:
Assay in all cases: NCI-60 cell line screen, 48 h
[1] = test system: DMS-273
[2] = test system: LXFL 529
[3] = test system: SNB-78
[4] = test system: M19-MEL
[5] = test system: DLD-1
[6] = test system: DMS-114
[7] = test system: HOP-18
[8] = test system: XF498

Measured: GI50

CN(Cc1ccccc1)/C(=N\C#N)N(Cc1ccccc1)Cc1ccccc1
inactive: [1] 20.9 µM | [2] 21.9 µM | [3] 26.3 µM | [4] 22.8 µM | [5] 21 µM

O=C1NC2C(CCO)CC=C[C@H]2c2cc3c(cc21)OCO3 (stereo not given in full)
inactive: [1] > 100 µM | [6] > 100 µM | [2] > 100 µM | [3] > 100 µM | [4] > 100 µM | [5] > 100 µM

COC(=O)C(C(=O)OC)C1CCCC(=O)C1 (stereo not given)
inactive: [1] > 100 µM | [2] > 100 µM | [7] > 100 µM | [8] > 100 µM | [3] > 100 µM | [4] > 100 µM | [5] > 100 µM

C/C(=N/O)C1CC=C(S(=O)(=O)c2ccccc2)C1 (stereo not given)
inactive: [1] > 100 µM | [2] > 100 µM | [4] > 100 µM | [5] > 100 µM

O=C(NCCCN1CCN(CCCNC(=O)Nc2cc(Cl)ccc2Cl)CC1)Nc1cc(Cl)ccc1Cl
inactive: [1] 22.3 µM | [6] 38.5 µM | [2] 51.2 µM | [7] > 100 µM | [8] > 100 µM | [3] 90.6 µM | [5] > 100 µM

NC1=NCCC1(c1ccccc1)c1ccccn1 (stereo not given)
inactive: [1] > 100 µM | [6] > 100 µM | [2] > 100 µM | [7] > 100 µM | [8] > 100 µM | [3] > 100 µM | [4] > 100 µM

CN(C)c1ccc(C(C#N)NNC(=O)Cc2ccccc2)cc1 (stereo not given)
inactive: [1] > 100 µM | [6] > 100 µM | [2] > 100 µM | [7] > 100 µM | [3] > 100 µM | [4] > 100 µM | [5] > 100 µM

CCN(CC)CCCNC(=O)Cc1ccccc1Nc1c(Cl)cccc1Cl
inactive: [1] 14.9 µM | [6] 13.6 µM | [2] 7.67 µM | [8] 8.13 µM | [3] 15.9 µM | [4] 4.97 µM | [5] 15 µM

CC(N)C(C)c1ccccc1 (stereo not given)
inactive: [1] > 100 µM | [6] > 100 µM | [2] > 100 µM | [7] > 100 µM | [8] > 100 µM | [3] > 100 µM | [5] > 100 µM

Nc1c(-c2ccc(Cl)cc2)[n+]([O-])c2ccccc2[n+]1[O-]
inactive: [1] > 100 µM | [6] 46.1 µM | [2] 52.7 µM | [7] 20.7 µM | [8] 42.7 µM | [3] > 100 µM | [4] > 100 µM | [5] 88.7 µM

CC[N+](CC)(CC)Cc1cn(S(=O)(=O)c2ccccc2)c2ccccc12
inactive: [1] > 100 µM | [6] > 100 µM | [8] > 100 µM | [4] > 100 µM | [5] > 100 µM
